Read-outs that look alike come from different tables or passages of the source.
Assays:
Experiment in all cases: Kinase selectivity, scanMAX Kinase assay panel (DiscoverX), % control at 1 uM
Assay type in all cases: binding
[1] = target: T1, scanMAX Kinase assay panel (Homo sapiens, UniProt P19784); settings: CSNK2A2; 1 uM; read-out: Percent Control (%)
T1 construct: purchased DiscoverX
Outline: (§1)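 Read-out is percent of control, derived from the signal with compound relative to positive and negative controls: (compound − positive)/(negative − positive) × 100. Each enzyme received test drug at 1 uM in DMSO, and values under 35% count as active.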

[2] = target: T2, scanMAX Kinase assay panel (Homo sapiens, UniProt Q8N5S9); settings: CAMKK1; 1 uM; read-out: Percent Control (%)
T2 construct: purchased DiscoverX
T2 sequence (Q8N5S9 whole entry): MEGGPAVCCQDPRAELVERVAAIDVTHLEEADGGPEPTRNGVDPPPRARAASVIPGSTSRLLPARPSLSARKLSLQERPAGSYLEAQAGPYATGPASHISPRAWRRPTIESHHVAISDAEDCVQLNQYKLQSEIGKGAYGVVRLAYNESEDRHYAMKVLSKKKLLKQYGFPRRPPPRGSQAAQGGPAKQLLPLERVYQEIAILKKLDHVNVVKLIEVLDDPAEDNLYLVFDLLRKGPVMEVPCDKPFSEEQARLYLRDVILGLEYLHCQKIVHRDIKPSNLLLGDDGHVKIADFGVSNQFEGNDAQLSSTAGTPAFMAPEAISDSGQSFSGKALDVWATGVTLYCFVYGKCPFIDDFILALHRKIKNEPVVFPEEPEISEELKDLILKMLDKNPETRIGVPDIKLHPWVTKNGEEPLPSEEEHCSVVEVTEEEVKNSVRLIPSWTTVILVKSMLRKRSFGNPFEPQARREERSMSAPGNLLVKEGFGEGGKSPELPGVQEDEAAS
Outline: as §1

[3] = target: T3, scanMAX Kinase assay panel (Homo sapiens, UniProt Q9HBY8); settings: SGK2; 1 uM; read-out: Percent Control (%)
T3 construct: purchased DiscoverX
T3 sequence (Q9HBY8 1-367): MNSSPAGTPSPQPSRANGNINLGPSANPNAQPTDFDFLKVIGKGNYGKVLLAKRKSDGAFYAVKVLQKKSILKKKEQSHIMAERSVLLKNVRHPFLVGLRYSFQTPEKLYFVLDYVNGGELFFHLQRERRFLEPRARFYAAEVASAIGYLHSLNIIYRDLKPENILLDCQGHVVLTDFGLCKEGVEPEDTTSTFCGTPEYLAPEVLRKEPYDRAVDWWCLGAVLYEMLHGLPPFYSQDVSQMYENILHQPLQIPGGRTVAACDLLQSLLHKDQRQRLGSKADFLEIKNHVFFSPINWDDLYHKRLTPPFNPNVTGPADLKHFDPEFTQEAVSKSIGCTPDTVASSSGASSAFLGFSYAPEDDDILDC
Outline: as §1

[4] = target: T4, scanMAX Kinase assay panel (Plasmodium falciparum, UniProt P61075); settings: PFPK5 (P. falciparum); 1 uM; read-out: Percent Control (%)
T4 construct: purchased DiscoverX
T4 sequence (P61075 whole entry): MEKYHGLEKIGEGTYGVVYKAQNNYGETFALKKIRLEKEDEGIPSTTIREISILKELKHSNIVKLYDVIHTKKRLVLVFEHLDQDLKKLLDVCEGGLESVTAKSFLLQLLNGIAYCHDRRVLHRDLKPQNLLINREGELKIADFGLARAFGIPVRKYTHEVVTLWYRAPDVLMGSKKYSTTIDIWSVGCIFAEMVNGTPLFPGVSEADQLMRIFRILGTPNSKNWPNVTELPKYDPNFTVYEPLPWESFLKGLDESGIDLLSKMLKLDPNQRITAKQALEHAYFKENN
Outline: as §1

[5] = target: T5, scanMAX Kinase assay panel (Homo sapiens, UniProt Q16566); settings: CAMK4; 1 uM; read-out: Percent Control (%)
T5 construct: purchased DiscoverX
T5 sequence (Q16566 1-473): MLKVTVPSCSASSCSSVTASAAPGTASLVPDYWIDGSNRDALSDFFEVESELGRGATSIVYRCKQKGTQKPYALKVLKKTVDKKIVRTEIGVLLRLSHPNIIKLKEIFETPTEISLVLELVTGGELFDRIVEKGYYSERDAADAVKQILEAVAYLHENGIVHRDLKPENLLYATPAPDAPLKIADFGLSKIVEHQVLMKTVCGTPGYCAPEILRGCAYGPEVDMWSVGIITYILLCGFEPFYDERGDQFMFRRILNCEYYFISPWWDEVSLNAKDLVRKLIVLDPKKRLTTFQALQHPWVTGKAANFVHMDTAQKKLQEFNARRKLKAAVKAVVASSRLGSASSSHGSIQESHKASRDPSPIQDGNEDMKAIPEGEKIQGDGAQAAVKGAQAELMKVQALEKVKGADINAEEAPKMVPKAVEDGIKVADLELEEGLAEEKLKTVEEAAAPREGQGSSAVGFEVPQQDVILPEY
Outline: as §1

[6] = target: T6, scanMAX Kinase assay panel (Homo sapiens, UniProt Q8IVW4); settings: CDKL3; 1 uM; read-out: Percent Control (%)
T6 construct: purchased DiscoverX
T6 sequence (Q8IVW4 whole entry): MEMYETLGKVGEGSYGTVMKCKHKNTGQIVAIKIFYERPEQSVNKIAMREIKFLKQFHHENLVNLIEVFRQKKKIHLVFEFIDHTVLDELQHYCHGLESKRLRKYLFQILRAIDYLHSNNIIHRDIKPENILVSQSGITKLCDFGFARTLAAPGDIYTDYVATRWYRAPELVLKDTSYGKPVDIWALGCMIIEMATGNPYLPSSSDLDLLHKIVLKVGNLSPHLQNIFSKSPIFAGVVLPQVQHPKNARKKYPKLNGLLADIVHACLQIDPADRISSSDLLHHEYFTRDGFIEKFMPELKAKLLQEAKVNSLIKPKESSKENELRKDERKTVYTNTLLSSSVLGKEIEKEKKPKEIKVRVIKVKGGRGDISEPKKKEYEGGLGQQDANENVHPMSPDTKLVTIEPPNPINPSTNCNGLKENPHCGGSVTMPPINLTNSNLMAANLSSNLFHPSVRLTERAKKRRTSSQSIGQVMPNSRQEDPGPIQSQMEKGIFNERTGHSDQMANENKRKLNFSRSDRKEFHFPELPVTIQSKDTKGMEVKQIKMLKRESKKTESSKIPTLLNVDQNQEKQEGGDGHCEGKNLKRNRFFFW
Outline: as §1

[7] = target: T7, scanMAX Kinase assay panel (Homo sapiens, UniProt O00444); settings: PLK4; 1 uM; read-out: Percent Control (%)
T7 construct: purchased DiscoverX
T7 sequence (O00444 1-970): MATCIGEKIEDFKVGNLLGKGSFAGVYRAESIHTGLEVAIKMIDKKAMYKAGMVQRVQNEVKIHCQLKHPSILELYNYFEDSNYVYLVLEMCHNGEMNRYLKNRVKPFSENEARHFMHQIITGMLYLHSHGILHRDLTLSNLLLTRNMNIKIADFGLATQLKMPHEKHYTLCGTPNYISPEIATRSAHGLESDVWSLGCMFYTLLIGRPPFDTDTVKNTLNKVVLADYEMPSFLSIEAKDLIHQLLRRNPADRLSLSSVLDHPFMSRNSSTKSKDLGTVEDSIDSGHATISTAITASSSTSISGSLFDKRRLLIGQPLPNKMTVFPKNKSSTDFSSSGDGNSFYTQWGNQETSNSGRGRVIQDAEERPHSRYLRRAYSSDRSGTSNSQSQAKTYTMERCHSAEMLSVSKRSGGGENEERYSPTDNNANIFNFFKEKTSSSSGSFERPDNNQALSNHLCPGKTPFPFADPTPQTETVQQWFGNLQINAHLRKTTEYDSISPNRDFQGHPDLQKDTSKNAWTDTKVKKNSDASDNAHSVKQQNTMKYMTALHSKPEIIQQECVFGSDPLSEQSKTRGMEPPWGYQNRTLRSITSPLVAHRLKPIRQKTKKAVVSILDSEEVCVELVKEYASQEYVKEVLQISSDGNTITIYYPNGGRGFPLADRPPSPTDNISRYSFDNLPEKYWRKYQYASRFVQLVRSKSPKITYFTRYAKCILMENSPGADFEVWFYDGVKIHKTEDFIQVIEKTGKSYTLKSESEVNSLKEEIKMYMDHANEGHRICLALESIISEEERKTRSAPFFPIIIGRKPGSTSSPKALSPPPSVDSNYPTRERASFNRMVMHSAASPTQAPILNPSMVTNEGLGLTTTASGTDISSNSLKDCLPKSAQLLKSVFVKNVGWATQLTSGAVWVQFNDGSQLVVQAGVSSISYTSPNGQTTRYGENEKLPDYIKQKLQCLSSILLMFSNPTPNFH
Outline: as §1

[8] = target: T8, scanMAX Kinase assay panel (Homo sapiens, UniProt P11802); settings: 1 uM, read-out: Percent Control (%)
T8 construct: purchased DiscoverX
T8 sequence (P11802 whole entry): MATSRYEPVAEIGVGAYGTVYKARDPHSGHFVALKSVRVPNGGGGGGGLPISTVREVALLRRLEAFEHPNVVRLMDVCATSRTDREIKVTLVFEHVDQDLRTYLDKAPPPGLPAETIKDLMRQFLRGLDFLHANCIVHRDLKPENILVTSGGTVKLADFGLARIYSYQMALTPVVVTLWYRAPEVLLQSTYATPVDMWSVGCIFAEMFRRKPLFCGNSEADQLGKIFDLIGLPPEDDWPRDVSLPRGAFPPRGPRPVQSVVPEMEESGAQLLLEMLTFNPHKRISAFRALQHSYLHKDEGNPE
Outline: as §1

T1 sequence (P19784 whole entry): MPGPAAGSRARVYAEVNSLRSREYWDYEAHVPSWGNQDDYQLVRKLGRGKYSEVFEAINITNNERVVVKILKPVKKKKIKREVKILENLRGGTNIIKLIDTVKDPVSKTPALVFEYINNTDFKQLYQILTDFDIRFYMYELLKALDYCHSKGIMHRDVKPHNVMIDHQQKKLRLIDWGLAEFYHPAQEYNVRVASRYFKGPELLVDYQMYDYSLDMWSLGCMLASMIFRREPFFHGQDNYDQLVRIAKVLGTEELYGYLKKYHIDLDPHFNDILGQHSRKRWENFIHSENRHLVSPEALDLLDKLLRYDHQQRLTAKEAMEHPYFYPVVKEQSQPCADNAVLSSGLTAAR

SMILES	remaining binding at 1 µM [1]	remaining binding at 1 µM [2]	remaining binding at 1 µM [3]	remaining binding at 1 µM [4]	remaining binding at 1 µM [5]	remaining binding at 1 µM [6]	remaining binding at 1 µM [7]	remaining binding at 1 µM ([8]; CDK4-cyclinD1)	remaining binding at 1 µM ([8]; CDK4-cyclinD3)	remaining binding at 1 µM ([8]; CDK4)
Cc1ccc(C(=O)Nc2ccc(CN3CCN(C)CC3)c(C(F)(F)F)c2)cc1C#Cc1cnc2c(Nc3cnn(C)c3)cccn12 [Example 1, 4-methyl-3-((8-((1-methyl-1H-pyrazol-4-yl)amino)imidazo[1,2-a]pyridin-3-yl)ethynyl)-N-(4-((4-methylpiperazin-1-yl)methyl)-3-(trifluoromethyl)phenyl)benzamide]	56%	23%	84%	87%	99%	1%	79%	84%	78%	83%
Cc1cn(-c2cc(NC(=O)c3ccc(C)c(C#Cc4cnc5c(Nc6cnn(C)c6)cccn45)c3)cc(C(F)(F)F)c2)cn1 [Example 12, 4-methyl-N-(3-(4-methyl-1H-imidazol-1-yl)-5-(trifluoromethyl)phenyl)-3-((8-((1-methyl-1H-pyrazol-4-yl)amino)imidazo[1,2-a]pyridin-3-yl)ethynyl)benzamide]	98%	81%	100%	100%	87%	53%	85%	100%	100%	100%
Cc1ccc(NC(=O)C2(C(=O)Nc3ccc(F)cc3)CC2)cc1C#Cc1cnc2c(Nc3cnn(C(C)C)c3)cccn12 [Example 78]	100%	100%	100%	93%	100%	100%	100%	100%	100%	100%

— patent publication US10870647B2, “Imidazopyridine derivative, method for preparing same, and pharmaceutical composition containing same as active ingredient for preventing or treating cancer” (DAEGU-GYEONGBUK MEDICAL INNOVATION FOUNDATION, priority 2016, dated 2020)
